In general, IC50 refers to the concentration at which inhibition is half-maximal. By Kd is commonly meant the free concentration of one partner at which half of the binding sites on the other are occupied at equilibrium, for simple one-to-one binding.

The target in series [1] is H5N1 virus neuraminidase (Influenza A virus, UniProt Q9Q0U7). The series is described as follows: biochemical. The following applies: for inhibition at 6.25 µM / inhibition at 12.5 µM / inhibition at 25 µM / inhibition at 50 µM / inhibition at 100 µM / inhibition at 200 µM / inhibition at 400 µM: read-out: The neuraminidase inhibitory rate (%).
H5N1 virus neuraminidase, sequence (Q9Q0U7 whole entry, looked up): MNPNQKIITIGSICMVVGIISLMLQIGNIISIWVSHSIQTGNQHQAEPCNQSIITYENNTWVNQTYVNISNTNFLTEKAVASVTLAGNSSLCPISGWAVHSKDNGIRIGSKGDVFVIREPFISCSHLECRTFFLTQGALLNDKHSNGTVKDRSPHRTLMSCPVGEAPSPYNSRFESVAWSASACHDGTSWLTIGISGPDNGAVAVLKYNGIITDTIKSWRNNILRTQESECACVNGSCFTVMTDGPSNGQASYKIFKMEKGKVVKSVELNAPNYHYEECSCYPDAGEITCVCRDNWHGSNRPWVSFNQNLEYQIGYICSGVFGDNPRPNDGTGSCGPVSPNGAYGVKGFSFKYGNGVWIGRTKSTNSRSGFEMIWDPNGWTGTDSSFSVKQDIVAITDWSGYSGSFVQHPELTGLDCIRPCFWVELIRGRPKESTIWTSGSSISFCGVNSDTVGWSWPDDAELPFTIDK
The subject of series [2] is MDCK cells. The following applies: dog.
Series [3] has as its system A/Duck/Guangdong/212/2004 (H5N1) virus. The series is described as follows: microbe, parasite or virus in culture. In kind it is cell-based, H5N1 avian influenza virus.
Series [4] has as its system H5N1 virus HA1 (hemagglutination of chicken erythrocytes).
Series [5] has as its system H5N1 virus. Briefly: microbe, parasite or virus in culture. In kind it is cell-based, H5N1 avian influenza virus. The following applies: Influenza A virus.
In series [6] the target is HA protein (Influenza A virus, UniProt Q9Q0U6). The series is described as follows: biochemical. In kind it is binding, H5N1 virus.
HA protein, sequence (Q9Q0U6 17-568 limits assumed): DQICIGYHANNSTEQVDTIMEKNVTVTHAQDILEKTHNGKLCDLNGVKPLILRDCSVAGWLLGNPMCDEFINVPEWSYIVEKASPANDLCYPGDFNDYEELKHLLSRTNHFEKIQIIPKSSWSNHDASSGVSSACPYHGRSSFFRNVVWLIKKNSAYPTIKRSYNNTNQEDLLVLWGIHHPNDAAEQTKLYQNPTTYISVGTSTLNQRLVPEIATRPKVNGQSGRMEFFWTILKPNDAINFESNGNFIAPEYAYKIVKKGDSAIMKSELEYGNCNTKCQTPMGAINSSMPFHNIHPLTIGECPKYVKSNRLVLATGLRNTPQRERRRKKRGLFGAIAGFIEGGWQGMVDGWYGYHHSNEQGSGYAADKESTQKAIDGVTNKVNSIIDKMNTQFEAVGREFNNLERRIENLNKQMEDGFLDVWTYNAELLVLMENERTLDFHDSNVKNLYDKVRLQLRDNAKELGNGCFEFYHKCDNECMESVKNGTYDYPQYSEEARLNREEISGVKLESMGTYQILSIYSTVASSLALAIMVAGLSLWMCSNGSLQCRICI
Series [7] relates to VSVG pseudovirus. The series is described as follows: microbe, parasite or virus in culture. In kind it is cell-based, vesicular stomatitis virus (VSVG). The following applies: for inhibition at 1.56 µM / inhibition at 3.13 µM / inhibition at 6.25 µM / inhibition at 12.5 µM / inhibition at 25 µM / inhibition at 50 µM / inhibition at 100 µM / inhibition at 200 µM: Pseudovirus, MDCK, 48 h, read-out: inhibitory rates, VSVG pseudovirus group.

For series [8], the system named is wild-type A/Thailand/kan353/2004 (H5N1) pseudo-typed virus. The series is described as follows: microbe, parasite or virus in culture. Format: cell-based, H5N1 pseudovirus. The following applies: Influenza A virus, H5N1, MDCK; for inhibition at 1.56 µM / inhibition at 3.13 µM / inhibition at 6.25 µM / inhibition at 12.5 µM / inhibition at 25 µM / inhibition at 50 µM / inhibition at 100 µM / inhibition at 200 µM: 48 h, read-out: inhibitory rates against pseudotyped virus, Wildtype Strain; for IC50: read-out: IC50 against H5N1 pseudovirus.

A short description of series [9]: in vitro. The following applies: dog.
Series [10] has as its system A/Vietnam/1203/2004(H5N1) and A/Goose/Qinghai/59/05(H5N1) pseudotyped viral entry. The following applies: read-out: IC50 against pseudotyped viral entry; cited from earlier work.
Where [11] appears, read: Influenza A virus, H5N1, MDCK, read-out: Inhibition rates to H5N1 virus (%).
Where [12] appears, read: H5N1, read-out: inhibition rate of viral plaques forming.

Like-named read-outs stand apart in the source and are kept apart here.

In series [1], `CCOC(=O)C1=C[C@@H](OC(CC)CC)[C@H](NC(C)=O)[C@@H](N)C1` [Osetamivir, reference compound] yielded an IC50 of 0.00887 µM.
In the case of `CC1CCC2(OC1)OC1CC3C4CC(=O)C5CC(OC6OC(CO)C(OC7OC(C)C(O)C(O)C7O)C(O)C6OC6OC(C)C(O)C(O)C6O)CCC5(C)C4CCC3(C)C1C2C` (stereo not drawn) [UA-Nu-ph-5], in series [2], the CC50 was 127 ± 1.7 µM. Moreover, the “Inhibition rates to H5N1 virus (%)” value in [3] (0.39 µM) stood at 0%; in [3] (0.78 µM), 10.75±2.01%; in series [3] (1.56 µM), 10.78±3.11%; in [3] (3.13 µM) it was 16.51±6.34%; in [3] (50 µM), 65.30±4.73%. The compound also gave a half-maximal inhibitory concentration (IC50) in [3] (Influenza A virus, H5N1, MDCK) of 15.6 ± 2.4 µM. Also, the inhibition at 6.25 µM in series [3] (setting [11]) is 35 ± 10.8%. Besides, the inhibition at 12.5 µM in series [3] (setting [11]) was found to be 47.1 ± 1.63%. Further, the inhibition at 25 µM in [3] (setting [11]) was found to be 61.7 ± 5.4%. The inhibition at 100 µM in series [3] (setting [11]) was determined as 79.1 ± 3.27%.
Regarding `CC1CCC2(OC1)OC1CC3C4CC(=O)C5CC(OC6OC(CO)C(OC7OC(C)C(O)C(O)C7O)C(O)C6OC6OC(C)C(O)C(O)C6O)CCC5(C)C4CCC3(C)C1C2C` (stereo not drawn) [XC-27-1], the “inhibitory effects to the hemagglutination reaction induced by the virus HA1” value in series [4] was “had not produced inhibitory effects”. Besides, the inhibition at 40 µM in series [5] (setting [12]) was found to be 95%. In series [6], this compound displayed a dissociation constant Kd of 257 µM. Moreover, in series [2], the CC50 was 1247 ± 1.16 µM and the “in vitro cytotoxicity decreased (fold) than that of XC-27-2” value stood at 16 fold. For the same compound, in series [1], the “inhibition activity on NA (in words)” value is listed as “very low inhibition activity”, the inhibition at 6.25 µM is 6.57 ± 6.89%, the inhibition at 12.5 µM turned out to be 0.18 ± 8.13% and the inhibition at 25 µM was -6.95 ± 12.7%. In series [1], the inhibition at 50 µM stood at 5.37 ± 14.4%, the inhibition at 100 µM was determined as 6.45 ± 14.9%, the inhibition at 200 µM turned out to be 7.07 ± 9.83% and the inhibition at 400 µM is 24.5 ± 8.38%. Also, in [7], the “inhibitory effects on the VSVG pseudovirus” value was “no inhibitory effects”, the inhibition at 1.56 µM is -0.74 ± 6.43%, the inhibition at 3.13 µM is -1.52 ± 4.89% and the inhibition at 6.25 µM was -4.3 ± 3.47%. Also, in [7], the inhibition at 12.5 µM worked out at 3.54 ± 4.16%, the inhibition at 25 µM worked out at 0.83 ± 6.72%, the inhibition at 50 µM was 3.97 ± 5.2% and the inhibition at 100 µM came to 4.8 ± 4.97%. Besides, the inhibition at 200 µM in [7] turned out to be 4.75 ± 3.18%. In addition, in series [8], the inhibition at 1.56 µM was determined as 33.6 ± 5.25%, the inhibition at 3.13 µM amounted to 38 ± 3.24%, the inhibition at 6.25 µM was found to be 40.7 ± 10.9% and the inhibition at 12.5 µM amounted to 49 ± 11.7%. Besides, in series [8], the inhibition at 25 µM was 60.7 ± 3.73%, the inhibition at 50 µM amounted to 64.8 ± 2.96%, the inhibition at 100 µM was found to be 78 ± 2.16% and the inhibition at 200 µM came to 95.3 ± 3.6%. Besides, the concentration for half-maximal inhibition (IC50) in [8] worked out at 12.8 ± 7.01 µM. Further, the IC50 in series [3] was 16.8 ± 1.45 µM. For the same compound, the “Inhibition rates to H5N1 virus (%)” value in series [3] (0.39 µM) is on record as 27.54±1.11%. The “Inhibition rates to H5N1 virus (%)” value in series [3] (0.78 µM) was 31.73±6.04%. In addition, the “Inhibition rates to H5N1 virus (%)” value in series [3] (1.56 µM) was 37.01±4.82%. The “Inhibition rates to H5N1 virus (%)” value in series [3] (3.13 µM) was determined as 40.85±8.91%. Moreover, the “Inhibition rates to H5N1 virus (%)” value in series [3] (6.25 µM) is listed as 46.13±10.59%. Also, in [3] (12.5 µM), the “Inhibition rates to H5N1 virus (%)” value was determined as 55.30±3.74%. For the same compound, the “Inhibition rates to H5N1 virus (%)” value in series [3] (25 µM) was 75.06±10.43%. In addition, in series [3] (50 µM), the “Inhibition rates to H5N1 virus (%)” value is recorded as 85.71±5.06%.
Consider `CC1CCC2(OC1)OC1CC3C4CC(O)C5CC(OC6OC(CO)C(OC7OC(C)C(O)C(O)C7O)C(O)C6OC6OC(C)C(O)C(O)C6O)CCC5(C)C4CCC3(C)C1C2C` (stereo not drawn) [XC-27-2], for which the “inhibitory effects to the hemagglutination reaction induced by the virus HA1” value in [4] is recorded as “had not produced inhibitory effects”. The inhibition at 40 µM in series [5] (H5N1, read-out: inhibition percentage of H5N1 viral plaques forming amounts) was 91%. The inhibition at 40 µM in series [5] (setting [12]) was 96%. The compound also registered a Kd in series [6] of 367 µM. Besides, in series [1], the “inhibition activity on NA (in words)” value is recorded as “very low inhibition activity”, the inhibition at 6.25 µM was 1.09 ± 2.99%, the inhibition at 12.5 µM is 5.75 ± 4.41% and the inhibition at 25 µM came out at 2.89 ± 8.39%. For the same compound, in [1], the inhibition at 50 µM was 10.5 ± 16.5%, the inhibition at 100 µM is 13.3 ± 4.06%, the inhibition at 200 µM was found to be 15.6 ± 2.97% and the inhibition at 400 µM turned out to be 32 ± 10%. Besides, in series [7], the “inhibitory effects on the VSVG pseudovirus” value is given as “no inhibitory effects”, the inhibition at 1.56 µM amounted to 2.62 ± 4.57%, the inhibition at 3.13 µM is -3.39 ± 4.64% and the inhibition at 6.25 µM came out at 0.17 ± 5.78%. Further, in series [7], the inhibition at 12.5 µM amounted to 1.54 ± 13.9%, the inhibition at 25 µM worked out at 0.46 ± 0.94%, the inhibition at 50 µM is 0.34 ± 6.12% and the inhibition at 100 µM came out at 6.84 ± 5.83%. The inhibition at 200 µM in series [7] came out at 6.52 ± 2.16%. Besides, in series [8], the inhibition at 1.56 µM worked out at 26.8 ± 9.96%, the inhibition at 3.13 µM came out at 30.1 ± 12.2%, the inhibition at 6.25 µM was 35.8 ± 12.1% and the inhibition at 12.5 µM worked out at 46.3 ± 6.37%. In series [8], the inhibition at 25 µM turned out to be 47.4 ± 13.2%, the inhibition at 50 µM worked out at 64.9 ± 12.5%, the inhibition at 100 µM turned out to be 90.5 ± 2.35% and the inhibition at 200 µM turned out to be 95.98 ± 0.68%. The IC50 in series [8] was determined as 18.5 ± 1.82 µM. The compound also showed a CC50 in [9] of 73.8 ± 0.79 µM. Also, the IC50 in [3] (Influenza A virus, H5N1, MDCK) is 12.5 ± 2.27 µM. Moreover, in [3] (setting [11]), the inhibition at 0.39 µM was found to be 31.9 ± 4.33%, the inhibition at 0.78 µM stood at 38.6 ± 0.68%, the inhibition at 1.56 µM came to 41.5 ± 2.01% and the inhibition at 3.13 µM was found to be 47.1 ± 5.94%. In [3] (setting [11]), the inhibition at 6.25 µM was found to be 55.6 ± 3.97%, the inhibition at 12.5 µM stood at 62.2 ± 0.99%, the inhibition at 25 µM is 71 ± 4.31% and the inhibition at 50 µM amounted to 96.8 ± 1.51%.
In the case of `CC1CCC2(OC1)OC1CC3C4CC(O)C5CC(OC6OC(CO)C(OC7OC(C)C(O)C(O)C7O)C(O)C6OC6OC(C)C(O)C(O)C6O)CCC5(C)C4CCC3(C)C1C2C` (stereo not drawn) [chlorogenin 3-O-β-chacotrioside], in series [10], the concentration for half-maximal inhibition (IC50) was 7.22 to 9.25 µM.
`CCC(CC)[C@H](NC(C)=O)[C@@H]1[C@H](O)[C@@H](C(=O)O)C[C@H]1N=C(N)N` [peramivir, reference compound]: the IC50 in series [1] (read-out: IC50 against H5N1 viral NA) was 0.000668 µM.
`NC(=O)c1ncn([C@@H]2O[C@H](CO)[C@@H](O)[C@H]2O)n1` [ribavirin, reference compound] registered a CC50 in series [9] of 132 ± 0.87 µM. In [3] (Influenza A virus, H5N1, MDCK), this compound showed a half-maximal inhibitory concentration (IC50) of 37.2 ± 1.6 µM.

The values above are taken from paper PMC7150989 (Viruses, 2020).
